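Results reflect a 48-hour exposure of cells in 96-well plates to compound at five concentrations. TGI: concentration producing complete growth inhibition.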
Experiments:
Experiment in all cases: inhibition of tumour cell growth, NCI panel, 48 h
HT29 colon = tested on: HT29 colon
MCF7 breast = tested on: MCF7 breast
OVCAR-3 ovarian = tested on: OVCAR-3 ovarian
NCI-H460 lung = tested on: NCI-H460 lung
SNB-19 CNS = tested on: SNB-19 CNS
A549 NSCLC = tested on: A549 NSCLC
DU-145 prostate = tested on: DU-145 prostate
786-0 renal = tested on: 786-0 renal
LOX IMVI melanoma = tested on: LOX IMVI melanoma
NCI-H522 lung = tested on: NCI-H522 lung
NCI-H23 lung = tested on: NCI-H23 lung
HCT-116 colon = tested on: HCT-116 colon
ACHN renal = tested on: ACHN renal
K-562 leukemia = tested on: K-562 leukemia
IGROV1 ovarian = tested on: IGROV1 ovarian
NCI-H226 lung = tested on: NCI-H226 lung
SF-539 CNS = tested on: SF-539 CNS
HCT-15 colon = tested on: HCT-15 colon
COLO 205 colon = tested on: COLO 205 colon
MDA-N = tested on: MDA-N

NC(=O)N=C(N(Cc1ccccc1)Cc1ccccc1)N(Cc1ccccc1)Cc1ccccc1
TGI (HT29 colon): > 100 µM
TGI (MCF7 breast): > 100 µM
TGI (OVCAR-3 ovarian): > 100 µM
TGI (NCI-H460 lung): > 100 µM
TGI (SNB-19 CNS): > 100 µM
TGI (A549 NSCLC): > 100 µM
TGI (DU-145 prostate): > 100 µM
TGI (786-0 renal): > 100 µM
TGI (LOX IMVI melanoma): > 100 µM
TGI (NCI-H522 lung): > 100 µM
TGI (NCI-H23 lung): > 100 µM
TGI (HCT-116 colon): > 100 µM
TGI (ACHN renal): > 100 µM
TGI (K-562 leukemia): > 100 µM
TGI (IGROV1 ovarian): > 100 µM
TGI (NCI-H226 lung): > 100 µM
TGI (SF-539 CNS): > 100 µM
TGI (HCT-15 colon): > 100 µM

O=C(CCC(NC(=O)OCc1ccccc1)C(=O)OCc1ccccc1)Nc1ccc(OCc2ccccc2)cc1 (centres undefined)
TGI (HT29 colon): > 31.6 µM
TGI (MCF7 breast): 19.9 µM
TGI (OVCAR-3 ovarian): > 100 µM
TGI (NCI-H460 lung): > 31.6 µM
TGI (SNB-19 CNS): > 31.6 µM
TGI (A549 NSCLC): > 31.6 µM
TGI (COLO 205 colon): > 31.6 µM
TGI (DU-145 prostate): > 31.6 µM
TGI (786-0 renal): 17.4 µM
TGI (LOX IMVI melanoma): > 31.6 µM
TGI (NCI-H522 lung): > 100 µM
TGI (NCI-H23 lung): > 31.6 µM
TGI (HCT-116 colon): 17.1 µM
TGI (ACHN renal): > 31.6 µM
TGI (K-562 leukemia): > 31.6 µM
TGI (IGROV1 ovarian): > 31.6 µM
TGI (NCI-H226 lung): > 31.6 µM
TGI (SF-539 CNS): > 31.6 µM
TGI (HCT-15 colon): 26.3 µM

O=C1c2ccccc2S(=O)(=O)c2c1cccc2[N+](=O)[O-]
TGI (HT29 colon): > 7.01 µM
TGI (MCF7 breast): 3.31 µM
TGI (OVCAR-3 ovarian): 2.51 µM
TGI (NCI-H460 lung): > 10 µM
TGI (SNB-19 CNS): > 10 µM
TGI (A549 NSCLC): > 10 µM
TGI (COLO 205 colon): 2.77 µM
TGI (DU-145 prostate): > 10 µM
TGI (786-0 renal): 3.13 µM
TGI (LOX IMVI melanoma): 5.21 µM
TGI (NCI-H522 lung): 3.09 µM
TGI (NCI-H23 lung): > 8.17 µM
TGI (HCT-116 colon): 2.63 µM
TGI (ACHN renal): 8.04 µM
TGI (K-562 leukemia): > 10 µM
TGI (IGROV1 ovarian): 5.08 µM
TGI (NCI-H226 lung): > 10 µM
TGI (SF-539 CNS): 4.34 µM
TGI (HCT-15 colon): 2.95 µM

CC1=C(C(=O)O)N2C(=O)[C@@H](NC(=O)C(c3ccc(O)cc3)N3CSC(=S)N(C(C)C)C3)C2SC1 (some centres undefined)
TGI (HT29 colon): > 100 µM
TGI (OVCAR-3 ovarian): > 100 µM
TGI (NCI-H460 lung): > 100 µM
TGI (SNB-19 CNS): > 100 µM
TGI (A549 NSCLC): > 100 µM
TGI (COLO 205 colon): > 100 µM
TGI (786-0 renal): > 100 µM
TGI (LOX IMVI melanoma): > 100 µM
TGI (NCI-H522 lung): > 100 µM
TGI (NCI-H23 lung): > 100 µM
TGI (HCT-116 colon): > 100 µM
TGI (ACHN renal): > 100 µM
TGI (K-562 leukemia): > 100 µM
TGI (IGROV1 ovarian): > 100 µM
TGI (SF-539 CNS): > 100 µM
TGI (HCT-15 colon): > 100 µM

ONc1ncnc2nc[nH]c12
TGI (HT29 colon): > 100 µM
TGI (OVCAR-3 ovarian): > 100 µM
TGI (NCI-H460 lung): > 100 µM
TGI (SNB-19 CNS): > 100 µM
TGI (A549 NSCLC): > 100 µM
TGI (COLO 205 colon): > 100 µM
TGI (786-0 renal): > 100 µM
TGI (NCI-H522 lung): > 100 µM
TGI (NCI-H23 lung): > 100 µM
TGI (HCT-116 colon): > 100 µM
TGI (ACHN renal): > 100 µM
TGI (K-562 leukemia): > 100 µM
TGI (IGROV1 ovarian): > 100 µM
TGI (NCI-H226 lung): > 100 µM
TGI (SF-539 CNS): > 100 µM
TGI (HCT-15 colon): > 100 µM

COC(O)C(=O)c1c2c(cc3c1CC1(Cc4cc5c(cc4C1)CCC5)C3)CCC2 (centres undefined)
TGI (HT29 colon): 22.7 µM
TGI (MCF7 breast): 33.9 µM
TGI (OVCAR-3 ovarian): 28.9 µM
TGI (NCI-H460 lung): 42.7 µM
TGI (SNB-19 CNS): 36.1 µM
TGI (A549 NSCLC): 32.6 µM
TGI (DU-145 prostate): 33.7 µM
TGI (786-0 renal): 27 µM
TGI (LOX IMVI melanoma): 22.8 µM
TGI (NCI-H522 lung): 36.1 µM
TGI (NCI-H23 lung): 33.1 µM
TGI (HCT-116 colon): 20.9 µM
TGI (ACHN renal): 29.3 µM
TGI (K-562 leukemia): 36.2 µM
TGI (IGROV1 ovarian): 26 µM
TGI (SF-539 CNS): 31.5 µM
TGI (HCT-15 colon): 39.8 µM

Cc1c(/C=N/NC(=O)c2cc(Br)cc(Br)c2O)c(=O)n(-c2ccccc2)n1C
TGI (HT29 colon): > 100 µM
TGI (OVCAR-3 ovarian): 95.7 µM
TGI (NCI-H460 lung): > 100 µM
TGI (SNB-19 CNS): > 100 µM
TGI (A549 NSCLC): > 100 µM
TGI (COLO 205 colon): > 100 µM
TGI (786-0 renal): > 100 µM
TGI (LOX IMVI melanoma): > 100 µM
TGI (NCI-H522 lung): > 100 µM
TGI (NCI-H23 lung): > 100 µM
TGI (HCT-116 colon): > 100 µM
TGI (ACHN renal): > 100 µM
TGI (K-562 leukemia): > 100 µM
TGI (NCI-H226 lung): > 100 µM
TGI (SF-539 CNS): > 100 µM
TGI (HCT-15 colon): > 100 µM

COc1cc(Cn2c3ccccc3c3cc(C)c4c(c32)C=CC(C)(CCC=C(C)C)O4)cc2c1[nH]c1ccccc12 (centres undefined)
TGI (HT29 colon): > 100 µM
TGI (OVCAR-3 ovarian): > 100 µM
TGI (NCI-H460 lung): > 100 µM
TGI (SNB-19 CNS): > 100 µM
TGI (A549 NSCLC): > 100 µM
TGI (COLO 205 colon): > 100 µM
TGI (786-0 renal): > 100 µM
TGI (LOX IMVI melanoma): > 100 µM
TGI (NCI-H522 lung): > 100 µM
TGI (NCI-H23 lung): > 100 µM
TGI (HCT-116 colon): > 100 µM
TGI (ACHN renal): > 100 µM
TGI (K-562 leukemia): > 100 µM
TGI (IGROV1 ovarian): > 100 µM
TGI (SF-539 CNS): > 100 µM
TGI (HCT-15 colon): > 100 µM

N=c1c2c(C(N)=O)cn(C3OC(CO)C(O)C3O)c2ncn1O (centres undefined)
TGI (HT29 colon): 9.64 µM
TGI (OVCAR-3 ovarian): 0.943 µM
TGI (NCI-H460 lung): > 20.4 µM
TGI (SNB-19 CNS): > 100 µM
TGI (A549 NSCLC): 2.11 µM
TGI (COLO 205 colon): 1.23 µM
TGI (DU-145 prostate): 1.36 µM
TGI (786-0 renal): 1.08 µM
TGI (LOX IMVI melanoma): 0.438 µM
TGI (NCI-H522 lung): > 20.4 µM
TGI (NCI-H23 lung): 0.358 µM
TGI (HCT-116 colon): 0.596 µM
TGI (ACHN renal): 0.311 µM
TGI (IGROV1 ovarian): > 100 µM
TGI (NCI-H226 lung): 1.57 µM
TGI (SF-539 CNS): 2.02 µM
TGI (HCT-15 colon): 0.388 µM

COc1cccc(N=Cc2cc3cc(Br)ccc3nc2Cl)c1
TGI (HT29 colon): > 50 µM
TGI (OVCAR-3 ovarian): > 50 µM
TGI (NCI-H460 lung): > 50 µM
TGI (SNB-19 CNS): > 50 µM
TGI (A549 NSCLC): > 50 µM
TGI (COLO 205 colon): > 50 µM
TGI (MDA-N): > 50 µM
TGI (DU-145 prostate): > 50 µM
TGI (786-0 renal): 11.3 µM
TGI (LOX IMVI melanoma): > 50 µM
TGI (NCI-H522 lung): > 50 µM
TGI (NCI-H23 lung): > 50 µM
TGI (HCT-116 colon): > 50 µM
TGI (K-562 leukemia): > 50 µM
TGI (IGROV1 ovarian): > 50 µM
TGI (NCI-H226 lung): 25.7 µM
TGI (SF-539 CNS): > 50 µM
TGI (HCT-15 colon): > 50 µM

Nc1ncnc2ccc(Sc3ccc4ncnc(N)c4c3)cc12
TGI (HT29 colon): > 100 µM
TGI (MCF7 breast): > 100 µM
TGI (OVCAR-3 ovarian): > 100 µM
TGI (NCI-H460 lung): > 100 µM
TGI (SNB-19 CNS): > 100 µM
TGI (A549 NSCLC): > 100 µM
TGI (COLO 205 colon): > 100 µM
TGI (DU-145 prostate): > 100 µM
TGI (786-0 renal): > 100 µM
TGI (LOX IMVI melanoma): > 100 µM
TGI (HCT-116 colon): > 100 µM
TGI (ACHN renal): > 100 µM
TGI (K-562 leukemia): > 100 µM
TGI (IGROV1 ovarian): > 100 µM
TGI (NCI-H226 lung): > 100 µM
TGI (SF-539 CNS): > 100 µM
TGI (HCT-15 colon): > 100 µM

Source: PubChem BioAssay (NCI)
